Results from patent US20070021355A1, “Antidepressants or foods and beverage for antidepression” (priority 2003, published 2007).

What was measured:
Type in all cases: in vivo
[1] = test system: reserpine-administered mice; assay: Action on reserpine-induced temperature drop (body temperature); conditions: for Body temperature: male ddY mice, reserpine 2 mg/kg s.c., 100 mg/kg i.p. once per day for two days, mean ± standard error
Description: (§1) Male ddY mice (4 weeks old) were subcutaneously administered reserpine (2 mg/kg) (Apoplon injection 1 mg, product of Daiichi Pharmaceutical Co., Ltd.). These mice were divided into two groups: one to which Compound 1 (100 mg/kg) was intraperitoneally administered once per day for two days (reserpine+Compound 1-administered group) and the other to which only a solvent was administered (reserpine+solvent-administered group). Reserpine and Compound 1 were administered after being dissolved in a physiological saline. The body temperature of the mice was measured 0.5, 1, 3 and 6 hours after the last administration. Separately, a solvent was administered to another group of mice without reserpine administration.

[2] = test system: reserpine-administered mice; assay: Action on reserpine-induced blepharoptosis; conditions: for Blepharoptosis score: score 1 completely opened to 5 completely closed, reserpine 2 mg/kg s.c., 100 mg/kg i.p. once per day for two days, mean ± standard error
Description: as §1, with “The level” for “The body temperature”, “of blepharoptosis” for “of the mice”, “was scored” for “was measured”, “last administration (score 1: completely opened, score 2: ¼ closed, score 3: ½ closed, score 4: ¾ closed, and score 5: completely closed).” for “last administration.”

[3] = test system: reserpine-administered mice; assay: Action on reserpine-induced drop in the quantity of spontaneous motion
Description: Male ddY mice (4 weeks old) were subcutaneously administered reserpine (2 mg/kg) (Apoplon injection 1 mg, product of Daiichi Pharmaceutical Co., Ltd.). These mice were divided into two groups: one to which Compound 1 (100 mg/kg) was intraperitoneally administered once per day for four days (reserpine+Compound 1-administered group) and the other to which only a solvent was administered (reserpine+solvent-administered group). Reserpine and Compound 1 were administered after being dissolved in a physiological saline. After the last administration, the mice were immediately put into breeding cages equipped with an infrared beam sensor (NS-AS01, Neuroscience, Inc.). After the last administration, the quantity of spontaneous motion in each 30-minute period was measured for 360 minutes with an infrared beam sensor device for measuring the quantity of spontaneous motion (AB system, Neuroscience, Inc.) and the measured values were summed up on a specific purpose computer via an interface (B060CT8H06, Neuroscience, Inc). Separately, another group of mice which was administered no reserpine was tested.

[4] = test system: mice fed with a vitamin B deficient food; assay: Action on depressive behavior induced by vitamin B deficient food (swimming patterns)
Description: Male ddY mice (3 weeks old) were fed with a feed deficient in vitamin B1, vitamin B12 and folic acid for 8 days and then divided into two groups: one to which Compound 1 (100 mg/kg) was intraperitoneally administered once per day for 11 days (vitamin deficient food+Compound 1-administered group) and the other to which only a solvent was administered (vitamin deficient food+solvent-administered group). Compound 1 was administered after being dissolved in a physiological saline. Two hours after the last administration, the mice were put in a plastic cylindrical tub (diameter: 18 cm, height: 40 cm, water depth: 15 cm, water temperature: ca. 23° C.), followed by measurement of the time of their struggle, swimming and immobility in 10 minutes. Separately, another group of mice fed with a normal food was tested.

[5] = test system: 5-HT and 5-HIAA in the hypothalamus of mice; assay: Action on the amount of amine in the brain (5-HT and 5-HIAA in the hypothalamus); conditions: 100 mg/kg i.p.
Description: Male ddY mice (4 weeks old) were intraperitoneally administered Compound 1 (100 mg/kg) (Compound 1-administered group) and their brains were excised 30 and 60 minutes after the administration to measure the amounts of serotonin (5-HT) and its metabolite 5-hydroxyindole-3-acetic acid (5-HIAA) in the hypothalamus. Compound 1 was administered after being dissolved in a physiological saline. Separately, another group of mice was administered only a solvent (solvent-administered group) and the amounts of 5-HT and 5-HIAA were measured in the same manner.

[6] = 30 minute after last administration
[7] = 60 minute after last administration
[8] = 180 minute after last administration
[9] = 360 minute after last administration
[10] = vitamin B deficient food, 100 mg/kg i.p. once per day for 11 days, two hours after last administration, time in 10 minutes, mean ± standard error
[11] = male ddY mice, brains excised 30 and 60 minutes after administration, mean ± standard error

## NC(Cc1c([C@@H]2O[C@@H](CO)[C@H](O)[C@@H](O)[C@H]2O)[nH]c2ccccc12)C(=O)O (stereo partly drawn) [Compound 1, 2-amino-3-[2-(α-L-mannopyranosyl]indol-3-yl]propionic acid]
[1]; 100 mg/kg i.p.
  Effect on body temperature of reserpine-administered mice (in words): significantly raised the body temperature
[1]; [6]
  Body temperature: ***36.1 ± 0.2 °C
[1]; [7]
  Body temperature: ** 35.4 ± 0.1 °C
[1]; [8]
  Body temperature: ** 35.2 ± 0.3 °C
[1]; [9]
  Body temperature: ** 34.9 ± 0.4 °C
[2]; 100 mg/kg i.p.
  Effect on reserpine-induced blepharoptosis (in words): showed the action to improve the condition
[2]; [6]
  Blepharoptosis score: ***3.0 ± 0.4
[2]; [7]
  Blepharoptosis score: ** 3.1 ± 0.3
[2]; [8]
  Blepharoptosis score: ** 3.3 ± 0.3
[2]; [9]
  Blepharoptosis score: ** 3.3 ± 0.2
[3]; 100 mg/kg i.p.
  Effect on reserpine-induced drop in quantity of spontaneous motion (in words): showed the action to increase the quantity of spontaneous motion
[3]; reserpine 2 mg/kg s.c., 100 mg/kg i.p. once per day for four days, infrared beam sensor, mean ± standard error
  Quantity of spontaneous motion in 360 minutes: 2464.2 ± 594.6 count
[4]; 100 mg/kg i.p.
  Effect on struggle, swimming and immobility time of mice on vitamin B deficient food (in words): improved these actions
[4]; [10]
  Swimming pattern: Immobility: ***35.6 ± 15.4 second
  Swimming pattern: Struggle: ***2.4 ± 2.4 second
  Swimming pattern: Swimming: ***562.0 ± 14.2 second
[5]
  Effect on contents of 5-HT and 5-HIAA in the hypothalamus (in words): increased the contents of 5-HT and 5-HIAA
[5]; [11]
  Content of 5-HIAA in the hypothalamus: 374.1 ± 26.7 ng/g wet weight
  Content of 5-HT in the hypothalamus: 815.0 ± 39.1 ng/g wet weight
